The values below are quoted from earlier work in US20240400784A1, “Method for Screening Solvent for Extracting Polyvinyl Chloride, Method for Recycling Waste, Recycled Polyvinyl Chloride, and Composition” (LG Chem, Ltd., priority 2021, published 2024).

For this data set the following is noted: value in Table 1 of Document #1; swollen PVC and solvent volume based on PVC volume.
Turning to `CCCCCO` [1-Pentanol], the PVC swelling ratio is reported as 1.02.

With `CCCC(C)=O` [2-Pentanone], the PVC swelling ratio is 12.69.

Consider `CC(=O)CC(C)C` [4-Methylpentan-2-one], for which the PVC swelling ratio is listed as 7.06.

Turning to `c1ccccc1` [Benzene], the PVC swelling ratio is on record as 1.07.

Take `C1CCCCC1` [Cyclohexane]: the PVC swelling ratio is on record as 1.04.

Turning to `OC1CCCCC1` [Cyclohexanol], the PVC swelling ratio is given as 1.1.

For the compound `CCOC(C)=O` [Ethyl acetate], the PVC swelling ratio is 2.38.

Regarding Water, the PVC swelling ratio is 1.
